According to patent US9597407B2, “Targeted antimicrobial moieties” (C3 Jian, Inc., priority 2009, dated 2017):
“Also recorded” adds a separate entry of the source. Ends that are not written are not given here.

Assays:
microorganisms [1] = assay: Morphology, biofilm and growth disruption by peptides (Table 5); format: cell-based; set-up: key: A: Peptide aggregates; B: Less hyphal formation; Clumps; Diffuse clumps and small polyps; F: Diffuse growth; H: Thin; I: Growth inhibition; Microcolony formation; Rippled; Small polyps; Thick; W: Halo formation on top, microlonies on bottom
Excerpt: In certain embodiments peptides that induce alterations in phenotype or other biological activities can also be used as antimicrobial effector moieties.

microorganisms [2] = assay: Peptide activities: binding, antimicrobial, growth or phenotype altering (Table 8)
Excerpt: In certain embodiments, peptides described herein can have multiple activities. Thus for example, a peptide can have both binding/targeting activity and antimicrobial activity. Such peptides can be used, e.g., in a chimeric construct, for any or all of these properties. Thus, for example, a peptide designated “B” in Table 8 can be used as a targeting peptide. If it is also designated G or M it can also be used for antimicrobial activity.

bacteria = assay: Binding of targeting peptides to microorganisms (Table 3); conditions: preferably 1x PBS; for Target(s): microorganism bound by the targeting peptide, binding in aqueous buffers chosen by peptide solubility; for Target(s) (microorganisms bound by the targeting peptide) / Target(s) (microorganism bound by the targeting peptide): peptide binding in aqueous buffers that varied depending on peptide solubility

## PF-465 (KPVGKALEEIADGKIEPVVPKEYLG; Peptide with targeting and/or antimicrobial activity)
Microorganisms [1]; S. pneumoniae
  Organism, effect (morphology, biofilm and growth disruption): S. pneumoniae (H)
Microorganisms [2]
  Activities: G B

## PF-619 (chain 1 WSRVPGHSDTGWKVWHRW; chain 2 WSRVPGHSDTGWKVWHRW; Peptide with targeting and/or antimicrobial activity)
Microorganisms [1]; E. coli
  Organism, effect (morphology, biofilm and growth disruption): E. coli (C)
Microorganisms [1]; MRSA
  Organism, effect (morphology, biofilm and growth disruption): MRSA (M)
Microorganisms [1]; S. epidermidis
  Organism, effect (morphology, biofilm and growth disruption): S. epidermidis (M)
Microorganisms [1]; S. pneumoniae
  Organism, effect (morphology, biofilm and growth disruption): S. pneumoniae (C)
Microorganisms [2]
  Activities: G B

## PF-454 (MSVFVPVTNIFMFIMSPIFNVNLLHFKVYI; Peptide with targeting and/or antimicrobial activity)
Microorganisms [1]; E. coli
  Organism, effect (morphology, biofilm and growth disruption): E. coli (R)
Microorganisms [1]; E. faecalis
  Organism, effect (morphology, biofilm and growth disruption): E. faecalis (C)
Microorganisms [1]; MRSA
  Organism, effect (morphology, biofilm and growth disruption): MRSA (C)
Microorganisms [1]; P. aeruginosa
  Organism, effect (morphology, biofilm and growth disruption): P. aeruginosa (H)
Microorganisms [1]; S. epidermidis
  Organism, effect (morphology, biofilm and growth disruption): S. epidermidis (C)
Microorganisms [1]; S. pneumoniae
  Organism, effect (morphology, biofilm and growth disruption): S. pneumoniae (R)
Microorganisms [2]
  Activities: G B

## PF-479 (AYILKRREEKNK; Peptide with targeting and/or antimicrobial activity)
Microorganisms [1]; S. pneumoniae
  Organism, effect (morphology, biofilm and growth disruption): S. pneumoniae (C)
Microorganisms [2]
  Activities: G B

## PF-556 (SLQIRMNTLTAAKASIEAA; Peptide with targeting and/or antimicrobial activity)
Microorganisms [1]; B. subtilis
  Organism, effect (morphology, biofilm and growth disruption): B. subtilis (C)
Microorganisms [1]; C. jeikeium
  Organism, effect (morphology, biofilm and growth disruption): C. jeikeium (D)
Microorganisms [1]; C. jejuni
  Organism, effect (morphology, biofilm and growth disruption): C. jejuni (R)
Microorganisms [1]; E. faecalis
  Organism, effect (morphology, biofilm and growth disruption): E. faecalis (A)
Microorganisms [1]; M. luteus
  Organism, effect (morphology, biofilm and growth disruption): M. luteus (A)
Microorganisms [1]; MRSA
  Organism, effect (morphology, biofilm and growth disruption): MRSA (M)
Microorganisms [1]; S. epidermidis
  Organism, effect (morphology, biofilm and growth disruption): S. epidermidis (A)
Microorganisms [1]; S. pneumoniae
  Organism, effect (morphology, biofilm and growth disruption): S. pneumoniae (D)
Microorganisms [2]
  Activities: G B

## PF-354 (FTFSKCRASNGRGFGTLWL; Peptide with targeting and/or antimicrobial activity)
Microorganisms [1]; MRSA
  Organism, effect: MRSA (H)
Microorganisms [2]
  Activities: G B

## PF-380 (KKIIPLITLFVVTLVG; Peptide with targeting and/or antimicrobial activity)
Microorganisms [1]; C. jejuni
  Organism, effect: C. jejuni (D)
Microorganisms [1]; E. coli
  Organism, effect: E. coli (C)
Microorganisms [1]; E. faecalis
  Organism, effect: E. faecalis (C)
Microorganisms [1]; MRSA
  Organism, effect: MRSA (D)
Microorganisms [1]; P. aeruginosa
  Organism, effect: P. aeruginosa (A)
Microorganisms [1]; S. epidermidis
  Organism, effect: S. epidermidis (C)
Microorganisms [1]; S. pneumoniae
  Organism, effect: S. pneumoniae (D)
Microorganisms [2]
  Activities: G B

## PF-356 (VSIKIGAIVIGMIGLMELLTE; Peptide with targeting and/or antimicrobial activity)
Microorganisms [1]; C. jejuni
  Organism, effect: C. jejuni (D)
Microorganisms [1]; E. faecalis
  Organism, effect: E. faecalis (R)
Microorganisms [1]; MRSA
  Organism, effect: MRSA (C)
Microorganisms [1]; P. aeruginosa
  Organism, effect: P. aeruginosa (A)
Microorganisms [1]; S. epidermidis
  Organism, effect: S. epidermidis (S)
Microorganisms [1]; S. pneumoniae
  Organism, effect: S. pneumoniae (R)
Microorganisms [2]
  Activities: G B

## PF-124 (MADGQIAAIAKLHGVPVATRNIRHFQSFGVELINPWSG; Peptide with targeting and/or antimicrobial activity)
Microorganisms [1]; C. jeikeium
  Organism, effect: C. jeikeium (R)
Microorganisms [1]; S. epidermidis
  Organism, effect: S. epidermidis (C)
Microorganisms [2]
  Activities: G B

## PF-208 (DAYHCHLVRSPDAHDLSMRIGFV; Peptide with targeting and/or antimicrobial activity)
Microorganisms [1]; C. jeikeium
  Organism, effect: C. jeikeium (A)
Microorganisms [1]; S. epidermidis
  Organism, effect: S. epidermidis (D)
bacteria
  Target(s): S. epidermidis and C. albicans and MRSA and S. pneumoniae and E. faecalis and C. jeikeium and C. jejuni

## PF-426 (MLQKYTQMISVTKCIITKNKKTQENVDAYN; Peptide with targeting and/or antimicrobial activity)
Microorganisms [1]; C. albicans
  Organism, effect (morphology, biofilm and growth disruption): C. albicans (A)
Microorganisms [1]; C. jejuni
  Organism, effect (morphology, biofilm and growth disruption): C. jejuni (D)
Microorganisms [1]; E. coli
  Organism, effect (morphology, biofilm and growth disruption): E. coli (C)
Microorganisms [1]; E. faecalis
  Organism, effect (morphology, biofilm and growth disruption): E. faecalis (D)
Microorganisms [1]; MRSA
  Organism, effect (morphology, biofilm and growth disruption): MRSA (D)
Microorganisms [1]; S. epidermidis
  Organism, effect (morphology, biofilm and growth disruption): S. epidermidis (D)
Microorganisms [1]; S. pneumoniae
  Organism, effect (morphology, biofilm and growth disruption): S. pneumoniae (D)
bacteria
  Target(s) (microorganisms bound by the targeting peptide): S. epidermidis and E. coli and P. aeruginosa and C. albicans and MRSA and S. pneumoniae and E. faecalis and C. jeikeium

## MQIFYIKTKIFLSFFLFLLIFSQCFYKIEE [PF-442]
Microorganisms [1]; MRSA
  Organism, effect (morphology, biofilm and growth disruption): MRSA (M)
Microorganisms [1]; S. pneumoniae
  Organism, effect (morphology, biofilm and growth disruption): S. pneumoniae (C)
bacteria
  Target(s) (microorganisms bound by the targeting peptide): S. epidermidis; also recorded: E. coli; also recorded: C. albicans; also recorded: S. pneumoniae; also recorded: E. faecalis

## PF-180 (SGLGDLGFSSEAK; Peptide with targeting and/or antimicrobial activity)
Microorganisms [1]; S. epidermidis
  Organism, effect: S. epidermidis (C)
bacteria
  Target(s): S. epidermidis and M. luteus and P. aeruginosa and C. albicans and MRSA and E. faecalis and C. jejuni and M. smegmatis

## PF-649 (chain 1 CPRYPFVDVGPAGPWRARWRVGS; chain 2 CPRYPFVDVGPAGPWRARWRVGS; Peptide with targeting and/or antimicrobial activity)
Microorganisms [1]; E. faecalis
  Organism, effect (morphology, biofilm and growth disruption): E. faecalis (R)
bacteria
  Target(s) (microorganism bound by the targeting peptide): Mycobacteria spp

## PF-204 (ALQKQDMNLPSVKNQLVFLKSTG; Peptide with targeting and/or antimicrobial activity)
Microorganisms [1]; C. jeikeium
  Organism, effect: C. jeikeium (D)
Microorganisms [1]; M. luteus
  Organism, effect: M. luteus (C)
Microorganisms [1]; P. aeruginosa
  Organism, effect: P. aeruginosa (H)
Microorganisms [1]; S. epidermidis
  Organism, effect: S. epidermidis (C)
bacteria
  Target(s): S. epidermidis; also recorded: P. mirabilis; also recorded: E. coli; also recorded: P. aeruginosa; also recorded: C. albicans; also recorded: C. jejuni

## PF-C069 (NALMLREMQLAKNIKVEVTDVLSNKKYC; Peptide with targeting and/or antimicrobial activity)
Microorganisms [1]; F. nucleatum
  Organism, effect (morphology, biofilm and growth disruption): F. nucleatum (T)
bacteria
  Target(s) (microorganism bound by the targeting peptide): A. naeslundii; also recorded: F. nucleatum; also recorded: P. gingivalis; also recorded: S. mutans; also recorded: T. denticola

## PF-344 (DERLPEAKAIRNFNGSVMVLGR; Peptide with targeting and/or antimicrobial activity)
Microorganisms [1]; E. coli
  Organism, effect: E. coli (A)
bacteria
  Target(s): B. subtilis; also recorded: C. jejuni

## PF-638 (chain 1 TFILPK; chain 2 TFILPK; Peptide with targeting and/or antimicrobial activity)
Microorganisms [1]; E. faecalis
  Organism, effect (morphology, biofilm and growth disruption): E. faecalis (H)
Microorganisms [1]; MRSA
  Organism, effect (morphology, biofilm and growth disruption): MRSA (M)
Microorganisms [1]; S. epidermidis
  Organism, effect (morphology, biofilm and growth disruption): S. epidermidis (R)
Microorganisms [1]; S. pneumoniae
  Organism, effect (morphology, biofilm and growth disruption): S. pneumoniae (I)
bacteria
  Target(s) (microorganism bound by the targeting peptide): S. epidermidis and C. albicans and MRSA and C. jeikeium

## PF-691 (chain 1 HRTVEFGVLGTYLVSGGSL; chain 2 HRTVEFGVLGTYLVSGGSL; Peptide with targeting and/or antimicrobial activity)
Microorganisms [1]; S. pneumoniae
  Organism, effect (morphology, biofilm and growth disruption): S. pneumoniae (R)
bacteria
  Target(s) (microorganism bound by the targeting peptide): Mycobacteria spp

## PF-255 (DHKINESQHNPFRSDSNKQNVDFF; Peptide with targeting and/or antimicrobial activity)
Microorganisms [1]; M. luteus
  Organism, effect: M. luteus (M)
bacteria
  Target(s): P. aeruginosa

## PF-677 (chain 1 TCRGAGMH; chain 2 TCRGAGMH; Peptide with targeting and/or antimicrobial activity)
Microorganisms [1]; E. faecalis
  Organism, effect (morphology, biofilm and growth disruption): E. faecalis (R)
Microorganisms [1]; MRSA
  Organism, effect (morphology, biofilm and growth disruption): MRSA (D)
Microorganisms [1]; S. epidermidis
  Organism, effect (morphology, biofilm and growth disruption): S. epidermidis (R)
Microorganisms [1]; S. pneumoniae
  Organism, effect (morphology, biofilm and growth disruption): S. pneumoniae (D)
bacteria
  Target(s) (microorganism bound by the targeting peptide): Mycobacteria spp

## PF-233 (DANAMARTTIAIVYILALIALTISYSL; Peptide with targeting and/or antimicrobial activity)
Microorganisms [1]; S. epidermidis
  Organism, effect: S. epidermidis (C)
bacteria
  Target(s): S. epidermidis; also recorded: M. luteus; also recorded: P. aeruginosa; also recorded: A. baumannii

## PF-276 (LDLALSTNSLNLEGFSF; Peptide with targeting and/or antimicrobial activity)
Microorganisms [1]; M. luteus
  Organism, effect: M. luteus (M)
bacteria
  Target(s): S. epidermidis

## PF-666 (chain 1 PNRRSRPR; chain 2 PNRRSRPR; Peptide with targeting and/or antimicrobial activity)
Microorganisms [1]; S. pneumoniae
  Organism, effect (morphology, biofilm and growth disruption): S. pneumoniae (A)
bacteria
  Target(s) (microorganism bound by the targeting peptide): Mycobacteria spp

## PF-C142 (DFPPLSFFRRRFHAYTAPIDNFFGANPF; Peptide with targeting and/or antimicrobial activity)
Microorganisms [1]; S. mutans
  Organism, effect (morphology, biofilm and growth disruption): S. mutans (I)
bacteria
  Target(s) (microorganism bound by the targeting peptide): A. naeslundii; also recorded: F. nucleatum; also recorded: P. gingivalis; also recorded: S. mutans; also recorded: T. denticola

## PF-646 (chain 1 APASPGRRPG; chain 2 APASPGRRPG; Peptide with targeting and/or antimicrobial activity)
Microorganisms [1]; C. albicans
  Organism, effect (morphology, biofilm and growth disruption): C. albicans (B)
Microorganisms [1]; S. pneumoniae
  Organism, effect (morphology, biofilm and growth disruption): S. pneumoniae (H)
bacteria
  Target(s) (microorganism bound by the targeting peptide): Mycobacteria spp

## LSEMERRRLRKRA-NH2 [PF-529]
Microorganisms [1]; S. pneumoniae
  Organism, effect (morphology, biofilm and growth disruption): S. pneumoniae (H)
bacteria
  Target(s) (microorganisms bound by the targeting peptide): S. epidermidis and E. coli and C. albicans and MRSA and S. pneumoniae and E. faecalis and C. jeikeium
